Measured values reported in ChEMBL document CHEMBL1138168, “Imidazo[1,2-a]pyrimidines as functionally selective GABA(A) ligands” (Bioorg Med Chem Lett, 2006).
Active and inactive are the calls of the source. No cut-off for these calls is given here.

Columns and labels:
[1] = biological target: T1, GABA-A receptor; alpha-1/beta-3/gamma-2 (Homo sapiens, UniProt P14867+P18507+P28472); assay: Displacement of [3H]Ro 15-1788 from recombinant human GABA-Aalpha1 receptor plus beta-3-gamma-2 expressed in L(tk-) cells; type: cell-based
T1 sequence (P14867 whole entry): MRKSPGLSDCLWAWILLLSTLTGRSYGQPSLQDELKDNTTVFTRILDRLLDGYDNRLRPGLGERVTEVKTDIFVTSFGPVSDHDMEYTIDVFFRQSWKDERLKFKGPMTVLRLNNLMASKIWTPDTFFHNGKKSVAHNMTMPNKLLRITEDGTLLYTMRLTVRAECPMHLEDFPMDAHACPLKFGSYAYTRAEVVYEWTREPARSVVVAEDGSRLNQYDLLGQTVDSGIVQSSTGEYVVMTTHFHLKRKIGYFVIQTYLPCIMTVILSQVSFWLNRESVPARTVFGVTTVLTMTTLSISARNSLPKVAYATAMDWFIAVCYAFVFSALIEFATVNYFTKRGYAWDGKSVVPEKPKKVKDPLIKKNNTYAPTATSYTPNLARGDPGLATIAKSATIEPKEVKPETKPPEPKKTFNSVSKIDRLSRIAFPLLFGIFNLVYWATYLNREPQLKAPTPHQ
T1 sequence (P18507 whole entry): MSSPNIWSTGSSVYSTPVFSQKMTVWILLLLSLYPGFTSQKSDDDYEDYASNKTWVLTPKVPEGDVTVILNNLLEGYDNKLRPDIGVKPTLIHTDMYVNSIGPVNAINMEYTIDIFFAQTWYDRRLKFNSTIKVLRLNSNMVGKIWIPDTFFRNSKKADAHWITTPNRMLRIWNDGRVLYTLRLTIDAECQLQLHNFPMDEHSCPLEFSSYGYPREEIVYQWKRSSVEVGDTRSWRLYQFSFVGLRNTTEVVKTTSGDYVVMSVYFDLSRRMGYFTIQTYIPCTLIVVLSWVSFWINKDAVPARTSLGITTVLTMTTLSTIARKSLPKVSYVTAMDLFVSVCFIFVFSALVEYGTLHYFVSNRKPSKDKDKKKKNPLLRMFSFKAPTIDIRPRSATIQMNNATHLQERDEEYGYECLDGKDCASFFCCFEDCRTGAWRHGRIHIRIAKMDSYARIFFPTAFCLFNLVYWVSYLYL
T1 sequence (P28472 whole entry): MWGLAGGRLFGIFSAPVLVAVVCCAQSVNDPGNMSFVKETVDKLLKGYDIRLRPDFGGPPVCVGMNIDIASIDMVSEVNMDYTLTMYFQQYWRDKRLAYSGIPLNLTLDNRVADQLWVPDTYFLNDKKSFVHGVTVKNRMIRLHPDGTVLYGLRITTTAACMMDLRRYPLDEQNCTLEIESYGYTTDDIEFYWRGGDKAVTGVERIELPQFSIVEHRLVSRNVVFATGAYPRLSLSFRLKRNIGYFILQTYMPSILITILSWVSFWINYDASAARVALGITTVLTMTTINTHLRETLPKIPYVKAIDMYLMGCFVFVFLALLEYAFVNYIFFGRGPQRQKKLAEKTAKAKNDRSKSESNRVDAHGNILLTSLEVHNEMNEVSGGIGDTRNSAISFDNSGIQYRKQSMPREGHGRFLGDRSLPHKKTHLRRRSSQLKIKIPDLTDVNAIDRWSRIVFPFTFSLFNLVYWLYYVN

[2] = biological target: T2, GABA-A receptor; alpha-3/beta-3/gamma-2 (Homo sapiens, UniProt P18507+P28472+P34903); assay: Displacement of [3H]Ro 15-1788 from recombinant human GABA-Aalpha3 receptor plus beta-3-gamma-2 expressed in L(tk-) cells; type: cell-based
T2 sequence (P18507 whole entry): T1 sequence (P18507 whole entry)
T2 sequence (P28472 whole entry): T1 sequence (P28472 whole entry)
T2 sequence (P34903 whole entry): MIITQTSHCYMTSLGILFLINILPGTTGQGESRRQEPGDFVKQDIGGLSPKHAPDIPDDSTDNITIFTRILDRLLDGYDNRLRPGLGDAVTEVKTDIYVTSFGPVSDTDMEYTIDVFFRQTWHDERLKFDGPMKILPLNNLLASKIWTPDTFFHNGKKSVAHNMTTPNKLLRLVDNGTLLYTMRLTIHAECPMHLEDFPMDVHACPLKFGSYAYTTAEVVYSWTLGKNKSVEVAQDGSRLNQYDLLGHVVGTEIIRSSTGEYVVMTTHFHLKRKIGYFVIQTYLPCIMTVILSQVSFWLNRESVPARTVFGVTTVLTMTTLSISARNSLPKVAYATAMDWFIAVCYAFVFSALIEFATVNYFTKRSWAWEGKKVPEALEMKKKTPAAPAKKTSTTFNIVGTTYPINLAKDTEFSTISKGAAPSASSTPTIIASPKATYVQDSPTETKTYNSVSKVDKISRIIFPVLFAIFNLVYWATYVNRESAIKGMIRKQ

[3] = biological target: T3, GABA-A receptor; alpha-1/beta-3/gamma-2 (Homo sapiens) (UniProt P14867+P18507+P28472); assay: Efficacy against recombinant human GABA-Aalpha1 receptor plus beta-3-gamma-2 as measured by modulation of chloride ion flux; type: functional
[4] = biological target: T4, GABA-A receptor; alpha-3/beta-3/gamma-2 (Homo sapiens) (UniProt P18507+P28472+P34903); assay: Efficacy against recombinant human GABA-Aalpha3 receptor plus beta-3-gamma-2 as measured by modulation of chloride ion flux; type: functional
[5] = biological target: GABA-A receptor; alpha-5/beta-3/gamma-2 (Homo sapiens) (UniProt P18507+P28472+P31644); assay: Displacement of [3H]Ro 15-1788 from recombinant human GABA-Aalpha5 receptor plus beta3gamma2 expressed in L(tk-) cells; type: cell-based
[6] = biological target: T4, GABA-A receptor; alpha-3/beta-3/gamma-2 (Homo sapiens); assay: Efficacy against recombinant human GABA-Aalpha3 receptor plus beta-3-gamma-2 expressed in L(tk-) cells by whole cell patch clamp method; type: functional, cell-based
[7] = Metabolism in dog liver microsomes at 1 uM
[8] = biological target: T3, GABA-A receptor; alpha-1/beta-3/gamma-2 (Homo sapiens); assay: Efficacy against recombinant human GABA-Aalpha1 receptor plus beta-3-gamma-2 expressed in L(tk-) cells by whole cell patch clamp method; type: functional, cell-based
Canis familiaris = species: Canis familiaris; assay: Stability in dog liver microsomes; type: ADME, Canis lupus familiaris, Microsome
[9] = biological target: GABA-A receptor; anion channel (Rattus norvegicus) (UniProt O09028+P15431+P18506+P18508+P19969+P20236+P23574+P23576+P28471+P28473+P30191+P62813+P63079+P63138+Q91ZM7+Q9ES14); assay: Receptor occupancy in vivo by displacement of [3H]Ro 15-1788 binding from GABA-A receptor in rat at 1 mg/kg, po; type: functional, organism-based; parameters: dose 1 mg/kg
Plasma = assay: Receptor occupancy in plasma of rat at 1 mg/kg, po; type: functional
[10] = Rat brain to plasma ratio at 1 mg/kg, po; type: ADME, organism-based; parameters: dose 1 mg/kg, route oral; conditions: brain and plasma
Homo sapiens = species: Homo sapiens; assay: Stability in human liver microsomes; type: ADME, Microsome
Mus musculus = assay: Proconvulsant activity in Swiss Webster mice at 10 mg/kg, ip by pentylenetetrazole assay; type: ADME, organism-based; parameters: dose 10 mg/kg, route intraperitoneal; conditions: in vivo

| Ki [1] [nM] | Ki [2] [nM] | Efficacy [3] [%] | Efficacy [4] [%] | Efficacy [6] [%] | Compound | other results |
| --- | --- | --- | --- | --- | --- | --- |
| 0.36 | 0.46 | -8 | 10 | -22 | N#Cc1ccccc1-c1cccc(-c2cnc3nc(C(F)(F)F)ccn23)n1 | Activity [5]: Active; metabolized at 1 µM [7]: 15% |
| 9.1 | 11 | -40 | -7 |  | FC(F)(F)c1ccn2c(-c3ccccn3)cnc2n1 |  |
| 1 | 1.4 | -29 | -15 |  | N#Cc1ccccc1-c1nccc(-c2cnc3nc(C(F)(F)F)ccn23)n1 | Activity [5]: Active; metabolized at 1 µM [7]: 56% |
| > 33 | > 33 |  |  |  | FC(F)(F)c1ccn2c(-c3cc(Cl)ccn3)cnc2n1 |  |
| 0.31 | 0.88 | -24 | -40 |  | FC(F)(F)c1cccc(-c2cnc3nc(C(F)(F)F)ccn23)n1 |  |
| 18 | > 33 | -55 | -39 |  | N#Cc1ccccc1-c1cncc(-c2cnc3nc(C(F)(F)F)ccn23)c1 |  |
| 0.93 | 2 | -22 | -19 | -24.9 | FC(F)(F)c1ccn2c(-c3ccnc(Cl)n3)cnc2n1 | Activity (Mus musculus): Inverse agonist |
| > 33 | > 33 |  |  |  | FC(F)(F)c1ccn2c(-c3cc(Cl)ncn3)cnc2n1 |  |
| 1.9 | 13 |  |  |  | CCO/N=C(\C)c1ccc2c(c1)ncn2-c1cccc(-c2cccnc2)c1 |  |
| > 33 | > 33 |  |  |  | N#Cc1ccccc1-c1ccnc(-c2cnc3nc(C(F)(F)F)ccn23)c1 |  |

The remaining lines, values behind:

| Compound | Ki [1] [nM] | Ki [2] [nM] | Efficacy [3] [%] | Efficacy [4] [%] | Efficacy [6] [%] | other results |
| --- | --- | --- | --- | --- | --- | --- |
| N#Cc1ccccc1-c1ccnc(-c2cnc3nc(C(F)(F)F)ccn23)n1 | > 33 | > 33 |  |  |  |  |
| N#Cc1ccccc1-c1cc(-c2cnc3nc(C(F)(F)F)ccn23)ccn1 | 2.5 | 2.9 | 4 | 43 | 45 | Efficacy [8]: 15%; Activity [5]: Active; metabolized at 1 µM [7]: 4% |
| N#Cc1cc(F)ccc1-c1cc(-c2cnc3nc(C(F)(F)F)ccn23)ccn1 | 0.99 | 2.2 | 9 | 21 | 22 | Efficacy [8]: 0%; Stability (Canis familiaris): < 5%; Activity [9]: 50%; Activity (Plasma): 0.15 µM; Kp [10]: 0.73; Stability (Homo sapiens): < 5% |
| COc1ccccc1-c1cc(-c2cnc3nc(C(F)(F)F)ccn23)ccn1 | 5.8 | 6.1 | 35 | 54 |  |  |
| COc1cc(-c2cnc3nc(C(F)(F)F)ccn23)ccn1 | 29 | > 33 |  |  |  |  |
| FC(F)(F)c1ccn2c(-c3cccc(Br)n3)cnc2n1 | 0.31 | 0.68 | 11 | 2 |  |  |
| Fc1cccc(-c2cc(-c3cnc4nc(C(F)(F)F)ccn34)ccn2)c1 | > 33 | > 33 |  |  |  |  |
| COc1cccc(-c2cnc3nc(C(F)(F)F)ccn23)n1 | 1.2 | 1.7 | -22 | -9 | -51.6 | Efficacy [8]: -41.4% |
| Fc1ccccc1-c1cc(-c2cnc3nc(C(F)(F)F)ccn23)ccn1 | 8.3 | 14 | 6 | 23 |  |  |
| N#Cc1ccccc1-c1cccc(-c2cnc3nc(C(F)(F)F)ccn23)c1 |  |  | 10 | 53 | 59 | Efficacy [8]: 19%; metabolized at 1 µM [7]: 100% |
